From ChEMBL document CHEMBL1129228, “Naphtho-fused azepines as potent growth hormone secretagogues” (Bioorg Med Chem Lett, 1997)
pEC50: −log10 of the molar value. Square brackets hold non-standard residues; d marks the D form. Peptide text beside a SMILES is read from it. ξ: configuration not given here. 1Nal = N[C@@H](Cc1cccc2ccccc12)C(=O)O; ξ1Nal = NC(Cc1cccc2ccccc12)C(=O)O; 3Amb = NCc1cccc(C(=O)O)c1

Tests used:
Rattus norvegicus = species: Rattus norvegicus; test: Compound was evaluated for its potency using rat pituitary cell assay; format: functional; details: Pituitary gland cell, read-out: ED50 (the source's name)
[1] = Oral bioavailability determined in rats; format: ADME, organism-based; details: rat, in vivo

pEC50 (Rattus norvegicus) | bioavailability [1] [%] | SMILES
7.43 | – | Cc1nnc(-c2cscc2-c2ccc(CN3C(=O)[C@H](NC(=O)CC(C)(C)N)CCc4c3ccc3ccccc43)cc2)o1
6.00 | – | CC(C)(N)CC(=O)N[C@@H]1CCc2ccccc2N(Cc2ccccc2)C1=O
6.90 | – | CC(C)(N)CC(=O)N[C@@H]1CCc2ccccc2N(Cc2ccc(-c3ccccc3-c3nn[nH]n3)cc2)C1=O
8.15 | – | NCCCC[C@H](NC(=O)[C@H](Cc1ccccc1)NC(=O)C(Cc1cccc2ccccc12)NC(=O)c1cccc(CN)c1)C(N)=O (some centres not stated) (H-[3Amb][ξ1Nal]FK-NH2)

More lines, now with the values behind:

SMILES | pEC50 (Rattus norvegicus) | bioavailability [1] [%]
CC(C)(N)CC(=O)N[C@@H]1CCc2c(ccc3ccccc23)N(Cc2ccc(-c3ccccc3-c3nn[nH]n3)cc2)C1=O | 8.40 | < 5
CC(C)(N)C(=O)N[C@@H]1CCc2ccccc2N(Cc2ccc(-c3ccccc3-c3nn[nH]n3)cc2)C1=O | 7.52 | –
CC(C)(N)CC(=O)N[C@@H]1CCc2ccccc2N(Cc2ccc(-c3ccccc3)cc2)C1=O | 5.77 | –
CC(C)(N)CC(=O)N[C@@H]1CCc2c(ccc3ccccc23)N(Cc2ccccc2)C1=O | 5.07 | –
NC1(C(=O)N[C@@H]2CCc3c(ccc4ccccc34)N(Cc3ccc(-c4ccccc4-c4nn[nH]n4)cc3)C2=O)CC1 | 6.76 | –
Cc1nnc(-c2cscc2-c2ccc(CN3C(=O)[C@H](NC(=O)CC(C)(C)N)CCc4ccccc43)cc2)o1 | 7.21 | –
C[C@H](N)C(=O)N[C@@H](Cc1ccccc1)C(=O)N[C@@H](Cc1cccc2ccccc12)C(=O)N[C@@H](Cc1ccccc1)C(=O)N[C@@H](CCCCN)C(N)=O (H-AF[1Nal]FK-NH2) | 8.70 | –
